This note sets out measurements from paper PMC10384675, “Novel Thiazolidine-2,4-dione-trimethoxybenzene-thiazole Hybrids as Human Topoisomerases Inhibitors” (Pharmaceuticals, 2023).

The test system of test [1] is MDA-MB-231 breast cancer cells. The test is described as follows: MTT cell viability assay, MDA-MB-231. Format: cell-based. Particulars: Homo sapiens, 72 h. How it is done: (§1) All of the synthesized compounds (7a–f) were studied to test their anticancer activity toward the estrogen receptor-positive (ER+) MCF-7 and the triple-negative MDA-MB-231 breast cancer cells (ER-, PR- and HER-2/Neu not overexpressed) and A2058 melanoma cells. Cells were incubated for 72 h with different concentrations of the compounds, and then the viability was checked by the MTT assay. […] Moreover, we checked the cytotoxicity of all of the synthesized compounds against the human MCF-10A non-malignant breast epithelial cells and mouse BALB/3T3 embryonic fibroblasts, in order to evaluate their selectivity on cancer cells.
(§2) The used cell lines (breast cancer cell lines MCF-7 and MDA-MB-231, melanoma cell line A2058 and human mammary epithelial cell line MCF-10A) were obtained from American Type Culture Collection (ATCC, Manassas, VA, USA) and cultured as already reported. The mouse BALB/3T3 embryonic fibroblasts were also purchased from American Type Culture Collection (ATCC, Manassas, VA, USA) and cultured in DMEM high glucose supplemented with 10% bovine calf serum (BCS) and 100 U mL^−1 penicillin/streptomycin.
(§3) MTT assay (Sigma Aldrich (St. Louis, MO, USA)) was performed for evaluating the in vitro anticancer activities of the compounds, as previously indicated. Different concentrations (0.1, 1, 10, 25, 50, and 100 μM) of the compounds were employed, with a 72 h endpoint. IC50 values were obtained from the percent (%) of control using GraphPad Prism 9 (GraphPad Software, La Jolla, CA, USA).
For orientation: Formazan colour is commonly taken as a measure of viable cells.

Test [2] concerns human MCF-10A non-malignant breast epithelial cells. The test is described as follows: MTT cytotoxicity assay, MCF-10A. Format: cell-based. Particulars: 72 h, normal cells. As for the experimental part: as §1, §2, §3
The next test has as its system MCF-7 cells. The test is described as follows: Mitochondria and cytochrome c immunostaining. Type of test: cell-based, human. The settings on record: at IC50 value, 24 h. An excerpt: In order to establish whether the observed cell death could be ascribed to the induction of the apoptotic pathway, we performed immunostaining assays using an anti-cytochrome c (cyt c) antibody and the mitochondrial probe MitoTracker Deep Red FM, which would allow us to verify whether cyt c was released from mitochondria to the cell cytoplasm or not. In Figure 6, panels B,C, it is possible to visualize the intracellular localization of cyt c (green fluorescence) and mitochondria (red fluorescence). […] Indeed, as visible in the overlay channel (panel D), the two fluorescence signals (red and green) were no longer superimposable.
Cells grown on glass coverslips in full medium were serum-deprived for 24 h, then the compound (or only vehicle) was added (24 h, 7e at its IC50 value). Next, cells were incubated with a staining solution containing MitoTracker® Deep Red FM probe (MitoTracker® Mitochondrion-Selective Probes, Invitrogen European Headquarters, Paisley PA4 9RF, UK; fluorescence excitation = 644, fluorescence emission = 665) for 20 min, at 37 °C. After a PBS wash, cells were fixed (cold methanol, 15 min at −20 °C) and incubated with the mouse anti-cytochrome c (556 433) primary antibody, purchased from BD, diluted in the blocking solution (4 °C/overnight), as described in [60]. […]

The test system of a further test is caspases 3/7. In words: Caspase-Glo assay, caspase-3/7. Format: cell-based, human. Particulars: MCF-7 cells, at IC50 value, 24 h, vs vehicle. As for the experimental part:
Once established that mitochondria were damaged and cyt c released into the cytoplasm, we evaluated the ability of compound 7e treatment (used at its IC50 value) in modulating caspase activity.
The caspase-Glo Assay (Caspase-Glo® 3/7, 8 and 9 Assay Systems, Promega Corporation, Madison, WI) was used to detect caspase-3/7, -8 and -9 activities, as reported in [82]. Briefly, cells were grown in white-walled 96-well plates, treated with the compound, and 100 µL of each […] was added.
Figure 7 Caspase activity in MCF-7 cells. […] Columns mean, bars SD; * p < 0.001; n.s., not significant (treated vs. CTRL).

A word on the IC50: it is the point on the concentration scale where inhibition reaches its midpoint. Read a high IC50 as a need for much substance.

For the compound `COc1cc(/C=C2\SC(=O)N(CC(=O)Nc3nc(-c4ccc(Br)cc4)cs3)C2=O)cc(OC)c1OC` [compound 7e, (Z)-2-(5-(3,4,5-Trimethoxybenzylidene)thiazolidin-2,4-dion-3-yl)-N-(4-(4-bromophenyl)thiazol-2-yl)acetamide], the IC50 in test [1] is 41.2 ± 0.9 µM; in test [2], more than 100 µM. For the same compound, the “cytochrome c release from mitochondria into the cytoplasm” value with MCF-7 cells was “cyt c was released into the cell cytoplasm”. Also, the “caspases 3/7 activity” value with caspases 3/7 was “higher activity”.
